# According to PMC11302666, “The two alternative NADH:quinone oxidoreductases from Staphylococcus aureus: two players with different molecular and cellular roles” (Microbiology Spectrum, 2024):
# T1: NDH-2B (Staphylococcus aureus, UniProt Q2FZW0)
# T1 construct: gene SAOUHSC_00875
# T1 sequence (Q2FZW0 1-354): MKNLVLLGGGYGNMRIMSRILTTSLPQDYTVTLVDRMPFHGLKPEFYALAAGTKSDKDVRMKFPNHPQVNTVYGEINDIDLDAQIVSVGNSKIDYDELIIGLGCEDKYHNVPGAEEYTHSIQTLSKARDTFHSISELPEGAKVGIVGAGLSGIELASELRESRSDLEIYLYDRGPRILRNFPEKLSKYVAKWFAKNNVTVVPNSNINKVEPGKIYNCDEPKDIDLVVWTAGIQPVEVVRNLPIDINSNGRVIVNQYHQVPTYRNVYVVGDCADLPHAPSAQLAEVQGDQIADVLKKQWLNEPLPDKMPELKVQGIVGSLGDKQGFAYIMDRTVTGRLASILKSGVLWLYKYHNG
# B1: NDH-2B (Staphylococcus aureus subsp. aureus NCTC 8325) (protein)
# chain: T1 sequence (Q2FZW0 1-354)
# Legend:
# NDH-2A = molecular target: T2, NDH-2A (Staphylococcus aureus, UniProt Q2FZV7); test: NADH:DMN oxidoreductase specific activity of purified enzyme, pH […]; format: biochemical
# T2 construct: gene SAOUHSC_00878
# NDH-2B [1] = molecular target: T1, NDH-2B; test: NADH:DMN oxidoreductase specific activity of purified enzyme; format: biochemical
# NDH-2B [2] = molecular target: T1, NDH-2B; test: tryptophan fluorescence quenching titration; format: binding
# NDH-2B [3] = molecular target: T1, NDH-2B; test: co-purified flavin identified by HPLC and UV-visible spectrum; format: binding
# NDH-2B [4] = molecular target: T1, NDH-2B; test: steady-state NADPH:DMN oxidoreductase inhibition (Ki app); also tryptophan fluorescence quenching titration; format: biochemical
# NDH-2B [5] = molecular target: T1, NDH-2B; test: tryptophan fluorescence quenching titration and STD-NMR; KM […] in steady-state kinetics; format: binding
# NDH-2B [6] = molecular target: T1, NDH-2B; test: tryptophan fluorescence quenching titration and STD-NMR; format: binding
# purified protein = substrate: NC(=O)C1=CN([C@@H]2O[C@H](COP(=O)(O)OP(=O)(O)OC[C@H]3O[C@@H](n4cnc5c(N)ncnc54)[C@H](OP(=O)(O)O)[C@@H]3O)[C@@H](O)[C@H]2O)C=CC1; test: purified protein; format: biochemical, Staphylococcus aureus; conditions: FAD binding site different from that of the quinone; pH 7.0
# T2 sequence (Q2FZV7 whole entry): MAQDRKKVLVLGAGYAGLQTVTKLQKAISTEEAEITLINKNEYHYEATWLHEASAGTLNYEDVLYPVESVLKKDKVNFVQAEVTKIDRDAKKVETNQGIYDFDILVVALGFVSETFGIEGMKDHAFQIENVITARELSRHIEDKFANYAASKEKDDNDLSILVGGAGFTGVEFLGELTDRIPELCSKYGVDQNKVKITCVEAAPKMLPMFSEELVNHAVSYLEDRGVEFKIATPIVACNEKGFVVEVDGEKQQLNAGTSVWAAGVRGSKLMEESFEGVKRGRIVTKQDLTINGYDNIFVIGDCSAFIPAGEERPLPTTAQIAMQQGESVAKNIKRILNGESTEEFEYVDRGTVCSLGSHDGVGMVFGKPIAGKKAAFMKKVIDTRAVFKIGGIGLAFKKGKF
molecule,measurement,setting,value
NC(=O)C1=CN([C@@H]2O[C@H](COP(=O)(O)OP(=O)(O)OC[C@H]3O[C@@H](n4cnc5c(N)ncnc54)[C@H](O)[C@@H]3O)[C@@H](O)[C@H]2O)C=CC1 [NADH],NDH-2A,NDH-2A,122.10 ± 18.30 µmol/min/mg
same,NDH-2B,NDH-2B [1],34.03 ± 0.86 µmol/min/mg
NC(=O)c1ccc[n+]([C@@H]2O[C@H](COP(=O)([O-])OP(=O)(O)OC[C@H]3O[C@@H](n4cnc5c(N)ncnc54)[C@H](O)[C@@H]3O)[C@@H](O)[C@H]2O)c1 [NAD^+],Kd,NDH-2B [2],170 ± 7.6 µM
"Cc1cc2nc3c(=O)[nH]c(=O)nc-3n(C[C@H](O)[C@H](O)[C@H](O)COP(=O)(O)OP(=O)(O)OC[C@H]3O[C@@H](n4cnc5c(N)ncnc54)[C@H](O)[C@@H]3O)c2cc1C [FAD, flavin adenine dinucleotide]",co-purified flavin identified by HPLC and UV-visible spectrum,NDH-2B [3],Subsequent HPLC analysis confirmed the flavin as flavin adenine dinucleotide (FAD)
"CCCCCCCc1cc(O)c2ccccc2[n+]1[O-] [HQNO, 2-n-heptyl-4-hydroxyquinoline-N-oxide]",Ki,NDH-2B [4],6.4 ± 1.25 µM
"CC1=C(C)C(=O)c2ccccc2C1=O [DMN, 2,3-dimethyl-1,4-naphthoquinone]",Kd,NDH-2B [5],160 ± 35 µM
NC(=O)c1ccc[n+]([C@@H]2O[C@H](COP(=O)(O)OP(=O)(O)OC[C@H]3O[C@@H](n4cnc5c(N)ncnc54)[C@H](OP(=O)(O)O)[C@@H]3O)[C@@H](O)[C@H]2O)c1 [NADP^+],Kd,NDH-2B [6],182 ± 29 µM
B1,Km,purified protein,80.4 ± 7.7 µM
